Reference: patent publication US10526278B2, “Inhibitors of quorum sensing receptor LasR” (priority 2017, dated 2020)

Columns and labels:
LasR [1] = target: T1, LasR (Pseudomonas aeruginosa, UniProt P25084); type: cell-based; conditions: measured vs 25 nM OdDHL
Source text: (§1) Methods for assessing LasR activation and inhibition are known in the art. More specifically methods as described in Moore et al. 2015 are used herein to assess activation and inhibition.
IC50 is the concentration of an inhibitor where the response or binding is reduced by half (half maximal inhibitory concentration).

P. aeruginosa PAO1 [2] = experiment: Elastase B production in P. aeruginosa PAO1 culture supernatants (elastin-Congo red); type: cell-based, Pseudomonas aeruginosa; conditions: compound alone 100 μM; % elastase relative to DMSO; FIG. 12A
Procedure: FIG. 12A is a graph comparing inhibition of elastase (as % relative to DMSO) for certain compounds of the invention. The amount of indicated compound added was 100 μM. M64 alone or in combination was added in the amount of 20 μM. The assay is conducted as described in Welsh et al. (2016) for compounds shown as well as certain compounds in combination with compound M-64 (Starkey, M. et al. (2014)):
The amount of elastase B in P. aeruginosa culture supernatants was measured following a reported protocol (Welsh et al., 2017 and Geske et al., 2007b) with modifications. A 10 mL overnight culture of P. aeruginosa PAO1 was grown for 16 hr. An inoculating culture was prepared by diluting the overnight culture 1:100 into freshly prepared assay medium, and 2 mL aliquots of this subculture were added to each test tube (0.5% DMSO, final). The cultures were grown for 17 hr, and the final cell density measured by reading OD600. […]
To quantify elastase B activity, the undigested elastin was pelleted by centrifugation of the assay plate at […] for 10 min, after which […] of the supernatant was transferred to a new, clear 96-well plate, and the absorbance at 490 nm measured. Media background absorbance (measured from a “no bacteria” control) was subtracted, the resulting values growth normalized by dividing by the final OD600, and the data plotted relative to a DMSO-treated positive control.

P. aeruginosa PAO1 [3] = conditions: earlier reports; cited from earlier work
LasR [4] = target: T1, LasR; experiment: LasR activation (agonism) assay, methods of Moore et al. 2015; type: cell-based; conditions: at high concentrations; FIGS. 8B, 9B, 10B
Source text: as §1
FIGS. 8A and 8B compare % LasR inhibition (8A) with % LasR activation (8B) for control compound V-06-018.
FIGS. 9A and 9B compare % LasR inhibition (9A) with % LasR activation (9B) for compound 33.
FIGS. 10A and 10B compare % LasR inhibition (10A) with % LasR activation (10B) for compound 32 (thiophene analog of compound 33).

T1 sequence (P25084 whole entry): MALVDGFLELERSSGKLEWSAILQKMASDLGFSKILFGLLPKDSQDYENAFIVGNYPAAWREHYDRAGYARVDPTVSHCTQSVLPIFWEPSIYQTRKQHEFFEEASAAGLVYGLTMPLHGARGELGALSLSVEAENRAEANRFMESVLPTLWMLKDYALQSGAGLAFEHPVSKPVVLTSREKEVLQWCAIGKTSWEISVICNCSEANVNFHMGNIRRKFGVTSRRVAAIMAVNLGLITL

CCCCCCCCCC(=O)CC(=O)Nc1ccccc1 [Compound V-06-018]
Maximum Inhibition (95% CL) (LasR [1]): 87 (91-85) %
IC50 (LasR [1]; read-out: IC50 (95% CL)): 2000 nM
inhibition of production of virulence factor elastase (P. aeruginosa PAO1 [2]): little or no inhibition
inhibition of elastase production (previously shown) (P. aeruginosa PAO1 [3]): previously been shown to inhibit elastase production
% LasR activation (LasR [4]): does not exhibit LasR activation
